Experimental findings from patent publication US9702865B2, “System and method for high-content oncology assay” (RIGEL PHARMACEUTICALS, INC., priority 2002, dated 2017) are described below.

Structures are written as SMILES.

Holding throughout (format): cell-based
One data set in a line: in vitro. The settings on record: human. An excerpt: (§1) FIG. 9A illustrates one embodiment of processing steps associated with the operation of the cell death analysis module 62. The first processing step of FIG. 9A is to obtain luminescence intensity (LI) values corresponding to defined nuclei of cells captured by the image capture device (block 130), as described above. Based upon these LI values, the minimum nuclear luminescence intensity values (“MNLI”) are obtained (block 132). The MNLI value for a nucleus is the lowest LI value measured for that nucleus, for example, the lowest gray value of the pixels within a specific defined nucleus. At this point, the cell death analysis module 62 may compare the MNLI values of particular cells to a range of predefined MNLI values indicative of viable cells (block 134). A value falling outside this range identifies the cell as being non-viable or dead, whereas a value falling within this range identifies the cell as being viable or alive. Alternatively, the cell death analysis module 62 may be carried out with populations of cells, as illustrated in FIG. 9B. In this instance, MNLI values for a plurality of defined nuclei are obtained (block 142) based upon their LI values (block 140) and the percentage of cells having MNLI values falling outside a specified range of MNLI values is calculated (block 144). This percentage is then compared with a predefined percentage range indicative of a viable cell population (block 146). Cell populations having percentages falling within the predefined range are reported as viable populations, whereas percentages falling outside the predefined range are reported as non-viable populations.
(§2) In one embodiment, the range of MNLI values indicative of viable cells may be calculated from control cell MNLI values using standard statistical analyses. For example, the MNLI values that bound a specified percentage or confidence interval, for example, 80%, 90%, 95% or a higher percentage, of the control cell MNLI values may be used as boundaries to defined the range of MNLI values indicative of viable cells. As this range is only exemplary, it will be appreciated that higher or lower percentages may be utilized. As a specified example, the MNLI values that bound 95% of the MNLI values using a standard statistical analysis yields good results. […] Once applied, the percentage of test cells falling within (or without) the range can be calculated to assess whether the cell population is viable or non-viable. […]
(§3) The coordinates of these DMSO-treated cells form a tight band of MNLI values. Based on a statistical analysis, 95% of the MNLI values measured from this population fall within a range of 481 to 560 intensity units (i.e., within a range of […] from the statistical mean MNLI value). […]

Data set [1] has as its system A549 cells. The experiment in a line: in vitro. The note with it: FIG. 10.
Excerpt: as §1, §2, §3

The test system of data set [2] is A549 cells. The experiment in a line: cell proliferation assay (nuclei count, cell proliferation analysis module). The settings on record: Homo sapiens; taxol-treated A549 cells, nuclei count vs concentration, FIG. 5. The source says: The cell proliferation analysis module 58 provides information about the ability of cells to divide and proliferate. In general, the cell proliferation analysis module provides such information by counting the number of objects (typically nuclei) identified by the object identification module 57. In one embodiment, the cell proliferation analysis module […] can be used to screen for and/or identify candidate compounds having anti-proliferative activity. According to this embodiment, the proliferation of cells treated with or exposed to a candidate compound of interest can be monitored with the cell proliferation analysis module 58 of the invention. […] In a specific embodiment, samples of equal volume are collected from a cell culture as a function of time and analyzed for proliferation with the cell proliferation analysis module 58 of the invention. […]
In another specific embodiment, adherent cells may be treated with different concentrations of test compound, permitted to incubate for a specified period time and then analyzed with the cell proliferation analysis module 58. Plotting the average number of cells in each sample well as a function of compound concentration provides a curve from which the anti-proliferative IC50 (or EC50) can be determined. […]

As usually defined, the viability is a per cent measure of how many cells are alive, often set against a control. Read a high viability as better survival. With `COc1cc([C@@H]2c3cc4c(cc3[C@@H](O[C@@H]3O[C@@H]5CO[C@@H](C)O[C@H]5[C@H](O)[C@H]3O)[C@H]3COC(=O)[C@H]23)OCO4)cc(OC)c1O` [etoposide], the viability in “in vitro” is 99.5%. For the same molecule, the “induction of cell death (MNLI analysis and visual inspection of images)” value with A549 cells [1] was “do not”.
What is called EC50 is the concentration needed to bring the measured effect to its halfway point. Low values mean a more potent agent, high ones a less potent agent. As for `CC(=O)O[C@H]1C(=O)[C@@]2(C)[C@H]([C@H](OC(=O)c3ccccc3)[C@]3(O)C[C@H](OC(=O)[C@H](O)[C@@H](NC(=O)c4ccccc4)c4ccccc4)C(C)=C1C3(C)C)[C@]1(OC(C)=O)CO[C@@H]1C[C@@H]2O` [taxol], in the data set with A549 cells [2], the 50% effective concentration (EC50) was found to be 2.2 nM. In the data set “in vitro”, the viability stood at 83%. Besides, the “induction of cell death (MNLI analysis and visual inspection of images)” value in the data set on A549 cells [1] is recorded as “induce cell death”.
